In ChEMBL document CHEMBL1148317, “A medicinal chemistry perspective on artemisinin and related endoperoxides” (J Med Chem, 2004):

Columns and labels:
Mus musculus [1] = assay: In vivo antimalarial activity to reduce parasitaemia in mice (Mus musculus) infected with Plasmodium berghei by 50% of the control; format: functional
Plasmodium falciparum [2] = assay: In vitro antimalarial activity for Plasmodium falciparum; format: functional, organism-based
[3] = Half life of compound was determined; format: ADME
Plasmodium falciparum [4] = assay: Inhibitory concentration against Plasmodium falciparum
Mus musculus [5] = assay: In vivo antimalarial activity to reduce parasitaemia in mice (Mus musculus) infected with Plasmodium berghei by 50% of the control; range 1 mg/kg to 3 mg/kg; format: functional
Plasmodium falciparum [6] = assay: In vitro antimalarial activity for Plasmodium falciparum; range 3 nM to 10 nM; format: functional, organism-based
Plasmodium falciparum [7] = assay: Inhibitory concentration against Plasmodium falciparum; remark: listed apart in the source

SMILES: Fc1ccc(C2=C[C@H]3OC4(CCCC4)OO[C@@]3(c3ccc(F)cc3)C2)cc1
- ED50 (Mus musculus [1]): 2.7 mg/kg
- IC50 (Plasmodium falciparum [2]): 4 nM

SMILES: CO[C@H]1O[C@@H](c2ccc(C(=O)O)cc2)C2CC[C@H]3CCCCC31OO2 (stereo partly specified)
- ED50 (Mus musculus [1]): 10 mg/kg
- IC50 (Plasmodium falciparum [2]): 30 nM

SMILES: CO[C@H]1O[C@@]2(c3ccc(F)cc3)CCC[C@H]3CCCC[C@]31OO2
- ED50 (Mus musculus [1]): 10 mg/kg
- IC50 (Plasmodium falciparum [2]): 30 nM

SMILES: C[C@H]1[C@H](OCc2ccc(C(=O)[O-])cc2)O[C@@H]2O[C@]3(C)CCC[C@H]4[C@H](C)CC[C@@H]1[C@@]24OO3.[Na+]
- half-life [3]: 3 h

SMILES: C1CCCCCC2(CCCCC1)OOCCCOO2
- ED50 (Mus musculus [1]): 20 mg/kg
- IC50 (Plasmodium falciparum [4]): 3 nM
- IC50 (Plasmodium falciparum [2]): 25 nM

SMILES: OC1CCC2(CC1)OOC1(O2)C2CC3CC(C2)CC1C3 (stereo unspecified)
- ED50 (Mus musculus [5]): 3 mg/kg
- IC50 (Plasmodium falciparum [6]): 10 nM

SMILES: CC1(OCc2ccccc2)CCC2C[C@@H]1OO[C@]2(C)CS(=O)(=O)c1ccccc1 (stereo partly specified)
- ED50 (Mus musculus [1]): 0.43 mg/kg
- IC50 (Plasmodium falciparum [2]): 9.4 nM

SMILES: Clc1ccc2c(NCCNC3CCC4(CC3)OOC3(O4)C4CC5CC(C4)CC3C5)ccnc2c1 (stereo unspecified)
- IC50 (Plasmodium falciparum [2]): 2.5 nM

SMILES: C[C@@H]1CC[C@H]2[C@@H](C)C(=O)O[C@@H]3O[C@@]4(C)CC[C@@H]1[C@]32OO4 [ARTEMISININ]
- IC50 (Plasmodium falciparum [7]): 10 nM
